Like-named read-outs stand apart in the source and are kept apart here.
Columns and labels:
[1] = test system: Key Broadleaf Weed and Crop Species; assay: Post-emergent Test II herbicidal activity (Table 15); assay type: in vivo; settings: post-emergence, 336 h, 14 d; for pest or weed control at 35 g/ha: 35 g ai/ha; for pest or weed control at 70 g/ha: 70 g ai/ha; for pest or weed control at 140 g/ha: 140 g ai/ha
Outline: (§1)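 Post-emergence spray; seedlings 7-21 d old, 1st-2nd true leaf; 187 L/ha; serial rates 1×-1/16×; solvent blank controls; subirrigated; visual % injury at 14 d.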

[2] = test system: Key Grass and Sedge Weeds as well as Grass Crops; assay: Post-emergent Test II herbicidal activity (Table 16); assay type: in vivo; settings: post-emergence, 336 h, 14 d; for pest or weed control at 35 g/ha: 35 g ai/ha; for pest or weed control at 70 g/ha: 70 g ai/ha; for pest or weed control at 140 g/ha: 140 g ai/ha
Outline: as §1

[3] = Abutilon theophrasti, velvetleaf (Abutilon theophrasti), read-out: Visual Growth Reduction (%) 14 Days After Application, ABUTH
[4] = Amaranthus retroflexus, redroot pigweed (Amaranthus retroflexus), read-out: Visual Growth Reduction (%) 14 Days After Application, AMARE
[5] = Brassica napus, oilseed rape, canola (Brassica napus), read-out: Visual Growth Reduction (%) 14 Days After Application, BRSNN
[6] = Chenopodium album, lambsquarters (Chenopodium album), read-out: Visual Growth Reduction (%) 14 Days After Application, CHEAL
[7] = Euphorbia heterophylla, wild poinsettia (Euphorbia heterophylla), read-out: Visual Growth Reduction (%) 14 Days After Application, EPHHL
[8] = Helianthus annuus, sunflower (Helianthus annuus), read-out: Visual Growth Reduction (%) 14 Days After Application, HELAN
[9] = Cyperus esculentus, yellow nutsedge (Cyperus esculentus), read-out: Visual Growth Reduction (%) 14 Days After Application, CYPES
[10] = Echinochloa crus-galli, barnyardgrass (Echinochloa crus-galli), read-out: Visual Growth Reduction (%) 14 Days After Application, ECHCG
[11] = Oryza sativa, rice (Oryza sativa), read-out: Visual Growth Reduction (%) 14 Days After Application, ORYSA
[12] = Setaria faberi, giant foxtail (Setaria faberi), read-out: Visual Growth Reduction (%) 14 Days After Application, SETFA
[13] = Triticum aestivum, wheat, spring (Triticum aestivum), read-out: Visual Growth Reduction (%) 14 Days After Application, TRZAS
[14] = Zea mays, maize, corn (Zea mays), read-out: Visual Growth Reduction (%) 14 Days After Application, ZEAMX

| Structure (SMILES) | pest or weed control at 35 g/ha [1, 3] [%] | pest or weed control at 70 g/ha [1, 3] [%] | pest or weed control at 140 g/ha [1, 3] [%] | pest or weed control at 35 g/ha [1, 4] [%] | pest or weed control at 70 g/ha [1, 4] [%] | pest or weed control at 140 g/ha [1, 4] [%] | pest or weed control at 35 g/ha [1, 5] [%] | pest or weed control at 70 g/ha [1, 5] [%] | pest or weed control at 140 g/ha [1, 5] [%] | pest or weed control at 35 g/ha [1, 6] [%] | pest or weed control at 70 g/ha [1, 6] [%] | pest or weed control at 140 g/ha [1, 6] [%] | pest or weed control at 35 g/ha [1, 7] [%] | pest or weed control at 70 g/ha [1, 7] [%] | pest or weed control at 140 g/ha [1, 7] [%] | pest or weed control at 35 g/ha [1, 8] [%] | pest or weed control at 70 g/ha [1, 8] [%] | pest or weed control at 140 g/ha [1, 8] [%] | pest or weed control at 35 g/ha [2, 9] [%] | pest or weed control at 70 g/ha [2, 9] [%] | also measured |
| --- | --- | --- | --- | --- | --- | --- | --- | --- | --- | --- | --- | --- | --- | --- | --- | --- | --- | --- | --- | --- | --- |
| COC(=O)c1nc(-c2ccc3cc[nH]c3c2F)cc(N)c1Cl [Compound 1.23, Methyl 4-amino-3-chloro-6-(7-fluoro-1H-indol-6-yl)picolinate] | 95 to 100 | 95 to 100 | 95 to 100 | 95 to 100 | 95 to 100 | 95 to 100 | 60 to 74 | 75 to 84 | 85 to 94 | 95 to 100 | 95 to 100 | 95 to 100 | 95 to 100 | 95 to 100 | 95 to 100 | 60 to 74 | 75 to 84 | 85 to 94 | 0 to 29 | 0 to 29 | pest or weed control at 140 g/ha [2, 9]: 0 to 29%; pest or weed control at 35 g/ha [2, 10]: 0 to 29%; pest or weed control at 70 g/ha [2, 10]: 0 to 29%; pest or weed control at 140 g/ha [2, 10]: 60 to 74%; pest or weed control at 35 g/ha [2, 11]: 0 to 29%; pest or weed control at 70 g/ha [2, 11]: 0 to 29%; pest or weed control at 140 g/ha [2, 11]: 0 to 29%; pest or weed control at 35 g/ha [2, 12]: 0 to 29%; pest or weed control at 70 g/ha [2, 12]: 0 to 29%; pest or weed control at 140 g/ha [2, 12]: 60 to 74%; pest or weed control at 35 g/ha [2, 13]: 0 to 29%; pest or weed control at 70 g/ha [2, 13]: 0 to 29%; pest or weed control at 140 g/ha [2, 13]: 30 to 44%; pest or weed control at 35 g/ha [2, 14]: 0 to 29%; pest or weed control at 70 g/ha [2, 14]: 0 to 29%; pest or weed control at 140 g/ha [2, 14]: 0 to 29% |
| Nc1cc(-c2ccc3cc[nH]c3c2F)nc(C(=O)O)c1Cl [Compound 1.24] | 85 to 94 | 95 to 100 | 95 to 100 | 95 to 100 | 95 to 100 | 95 to 100 | 85 to 94 | 45 to 59 | 95 to 100 | 85 to 94 | 95 to 100 | 95 to 100 | 95 to 100 | 95 to 100 | 95 to 100 | 60 to 74 | 75 to 84 | 85 to 94 | 0 to 29 | 0 to 29 | pest or weed control at 140 g/ha [2, 9]: 0 to 29%; pest or weed control at 35 g/ha [2, 10]: 0 to 29%; pest or weed control at 70 g/ha [2, 10]: 0 to 29%; pest or weed control at 140 g/ha [2, 10]: 0 to 29%; pest or weed control at 35 g/ha [2, 11]: 0 to 29%; pest or weed control at 70 g/ha [2, 11]: 0 to 29%; pest or weed control at 140 g/ha [2, 11]: 0 to 29%; pest or weed control at 35 g/ha [2, 12]: 0 to 29%; pest or weed control at 70 g/ha [2, 12]: 45 to 59%; pest or weed control at 140 g/ha [2, 12]: 60 to 74%; pest or weed control at 35 g/ha [2, 13]: 0 to 29%; pest or weed control at 70 g/ha [2, 13]: 30 to 44%; pest or weed control at 140 g/ha [2, 13]: 45 to 59%; pest or weed control at 35 g/ha [2, 14]: 0 to 29%; pest or weed control at 70 g/ha [2, 14]: 0 to 29%; pest or weed control at 140 g/ha [2, 14]: 0 to 29% |
| COC(=O)c1nc(-c2cc3[nH]ccc3cc2F)cc(N)c1Cl [Compound 1.25] | 0 to 29 | 0 to 29 | 30 to 44 | 75 to 84 | 85 to 94 | 95 to 100 | 60 to 74 | 75 to 84 | 85 to 94 | 0 to 29 | 60 to 74 | 60 to 74 | 0 to 29 | 0 to 29 | 30 to 44 | 0 to 29 | 0 to 29 | 0 to 29 | 0 to 29 | 0 to 29 | pest or weed control at 140 g/ha [2, 9]: 0 to 29%; pest or weed control at 35 g/ha [2, 10]: 0 to 29%; pest or weed control at 70 g/ha [2, 10]: 0 to 29%; pest or weed control at 140 g/ha [2, 10]: 0 to 29%; pest or weed control at 35 g/ha [2, 11]: 0 to 29%; pest or weed control at 70 g/ha [2, 11]: 0 to 29%; pest or weed control at 140 g/ha [2, 11]: 0 to 29%; pest or weed control at 35 g/ha [2, 12]: 0 to 29%; pest or weed control at 70 g/ha [2, 12]: 0 to 29%; pest or weed control at 140 g/ha [2, 12]: 0 to 29%; pest or weed control at 35 g/ha [2, 13]: 0 to 29%; pest or weed control at 70 g/ha [2, 13]: 0 to 29%; pest or weed control at 140 g/ha [2, 13]: 0 to 29%; pest or weed control at 35 g/ha [2, 14]: 0 to 29%; pest or weed control at 70 g/ha [2, 14]: 0 to 29%; pest or weed control at 140 g/ha [2, 14]: 0 to 29% |

Source: patent US20170050957A1, “4-AMINO-6-(HETEROCYCLIC)PICOLINATES AND 6-AMINO-2-(HETEROCYCLIC)PYRIMIDINE-4-CARBOXYLATES AND THEIR USE AS HERBICIDES” (Dow AgroSciences LLC, priority 2013, published 2017)
